Patent US7601846B2, “Compounds having activity as inhibitors of apoptosis” (The Regents of the University of California, priority 2001, dated 2009)
Counter-ions that a name gives are not always drawn. Like-named read-outs stand apart in the source and are kept apart here. Values belong to the compound of their own block, whether it stands above or below them.

Tests used:
[1] = test system: Bax, PUMA, noxa, DR5 (killer) mRNA; test: Modulation of proapoptotic genes by real time PCR in DEX-treated thymocytes; format: cell-based, mouse
Method: Four proapoptotic genes were tested by real time PCR. […] PUMA and noxa belong to the BH3-only protein subclass while Bax is a multidomain member of the family. DR5 (also called killer) is an apoptosis-inducing membrane receptor for tumor necrosis factor-related apoptosis-inducing ligand (also called TRAIL and Apo2 ligand). DR5 is a transcriptional target of p53, and its over expression induces cell death in vitro (Finnberg et al., Molecular and Cellular Biology 2005, 25, 2000-2013).

[2] = test system: PUMA; test: PUMA protein expression in DEX-treated thymocytes (western blot); format: cell-based, mouse; settings: thymocytes pretreated with 10 μM compound, 5 μM dexamethasone 6 hours, FIG. 6
Method: Thymocytes were pretreated with 10 μM of the indicated compounds and then exposed to 5 μM of dexamethasone for 6 hours. The cytosolic proteins were fractionated and then separated on a 4-12% gradient gel by SDS-PAGE and transferred to a PDVF membrane, which was probed with antibodies to PUMA and actin.
After removal of medium, cells were disrupted in lysis buffer (10 mM HEPES pH 7.9, 10 mM KCl, 0.1 mM EDTA, 0.1 mM EGTA, 1 mM dithiothreitol, 0.5 mM phenylmethylsulfonyl fluoride, and 0.6% NP-40) on ice. The nuclei were separated by centrifugation and the cytoplasmic sample removed. The nuclear pellets were resuspended in (20 mM HEPES pH 7.9, 0.4 M NaCl, 1.0 mM EDTA, 1.0 mM EGTA, 1 mM dithiothreitol, 0.1 mM phenylmethylsulfonyl fluoride) and the insoluble material was removed by centrifugation. The samples were heated to 70° C. for 10 minutes in loading buffer with 10 mM DTT. Each lane of an SDS-PAGE gel was loaded with 20 μg of protein. After electrophoresis, the proteins were transferred to a polyvinylidene difluoride (PVDF) membrane, blocked with 2% I-block™ (Tropix Inc, Bedford, Mass.) containing 0.05% Tween-20 in PBS, and then incubated with anti-PUMA (AbCam, Inc., Cambridge, Mass.). Horseradish peroxidase-conjugated anti-IgG (Santa Cruz Laboratories, Santa Cruz, Calif.) was used as the secondary antibody. […]

[3] = test system: Murine thymocytes; test: Dexamethasone-induced thymocyte apoptosis assay (DiOC6/PI staining, flow cytometry); format: cell-based; settings: Mus musculus, 6 hours; for EC50: 5 μM dexamethasone; for viability at 5 µM: compound tested at 5 μM (footnote b); for viability at 5 µM / viability at 10 µM: challenged with DEX, control 72 ± 4, DEX alone 36 ± 7, read-out: Average cell survival (%) Average alive cells (%); for viability at 10 µM: compound 10 μM
Method: All of the compounds were screened in the thymocyte assay for cytotoxicity and their ability to prevent dexamethasone-induced cell death. Murine thymocytes were exposed to 10 μM or 5 μM of each compound in the presence or absence of DEX for six hours and then assayed for their in vitro viability by 3,3′-dihexyloxacarbocyanine iodide (DiOC6) and propidium iodide (PI) staining, and flow cytometry. When cell death signals converge on the mitochondria, there is a loss of the inner mitochondrial membrane potential and cells can no longer retain the dye DiOC6 as an indicator of apoptosis. Once cells lose the integrity of the outer cell membrane, then the dye propidium iodide is no longer excluded from these cells. The percentage of viable cells, which retained DiOC6 and excluded PI was compared to cells treated with DEX alone.
Apoptosis assays. Thymocytes were harvested from young C57B1/6 mice and cultured at 37° C. in 5% CO2 in RPMI 1640 containing 10% FBS, 1% Penicillin/Streptomycin (Gibco BRL, Rockville, Md.). Thymocytes were plated at a density of 10^7 cells/mL and pre-incubated with 5-10 μM of each compound (from 10 mM stock in DMSO) for 30 minutes before induction of apoptosis. Apoptosis was induced with 5 μM dexamethasone or by exposure to 6 Gy gamma radiation. After 6 hours, cell apoptosis was assayed by propidium iodide (PI) and 3,3′ dihexyloxacarbocyanine iodide (DiOC6) staining. The cells were removed from the plate and incubated for 30 minutes in medium with 40 nM DiOC6 and 5 μg/mL PI and then analyzed by flow cytometry in a FACS caliber (Beckton-Dickinson, San Jose, Calif.). Viable cells had high DiOC6 (FL-1) and low PI (FL-3), whereas apoptotic cells had low DiOC6 (FL-1) and low PI (FL-3). To evaluate the EC50s the thymocytes were pre-exposed to graded concentrations of selected compounds for 30 minutes and then apoptosis was induced with 5 μM dexamethasone. After 6 hours the cells were harvested and stained as above.
The concentration (EC50) of each compound that inhibited dexamethasone-induced cell death by 50% was determined by nonlinear regression fitting of the data to a one-site model. Pseudo Hill slopes were determined by nonlinear regression fit of the data to a sigmoidal dose-response equation (variable slope): % viability=minimum % viability+(maximum−minimum % viability)/[1+10(log EC50−X)^n], where X is the logarithm of inhibitor concentration, and n is the pseudo Hill slope and the maximum and minimum % viability were experimentally determined after dexamethasone exposure and drug treatment. EC50 values and 95% confidence intervals (CI) were derived from the sigmoid fits to the percent control transformed data shown using GraphPad Prism version 4.0b for Macintosh (GraphPad Software, San Diego, Calif.).

[4] = cited from earlier work
[5] = test system: spontaneous apoptosis and fludarabine-induced apoptosis; test: Protection against spontaneous and fludarabine-induced apoptosis (FIG. 2); format: cell-based
[6] = mouse thymocytes treated with DEX, FIG. 5
[7] = Table 2, 30 minutes pre-exposure, read-out: EDEC50 (μM) of compounds in thymocyte apoptosis assay (first value in cell) (converted)
[8] = Table 1, 30 minutes pre-exposure, read-out: EDEC50 (μM) of compounds in thymocyte apoptosis assay

EC50 [3, 7]: 0.35 µM
Compound: Br.c1ccc2c(c1)sc1nc(-c3ccc(N4CCCC4)cc3)cn12 [Compound 15, 2-(4-Pyrrolidin-1-yl-phenyl)-benzo[d]imidazo[2,1-b]thiazole hydrobromide salt]
mRNA level of bax and killer relative to control [1, 6]: below it
mRNA level of proapoptotic genes (Bax, PUMA, noxa, DR5) relative to control [1, 6]: close to that of the control
PUMA protein expression (western blot) [2]: total inhibition
viability at 5 µM [3]: 78%

EC50 [3, 7]: 4.02 µM
Compound: c1ccc2cc(-c3ccc(-c4cn5c(n4)sc4ccccc45)cc3)ccc2c1 [Compound 14]
viability at 5 µM [3]: 75%

Compound: C[C@@H]1C[C@H]2[C@@H]3CCC4=CC(=O)C=C[C@]4(C)[C@@]3(F)[C@@H](O)C[C@]2(C)[C@@]1(O)C(=O)CO [Dexamethasone, reference compound]
Increase of PUMA mRNA upon treatment ([1]; mouse thymocytes, DEX treatment alone): over 9 fold

Compound: Cc1ccc(-c2nc3sc4ccccc4n3c2Br)cc1 [Compound 6, 3-Bromo-2-p-tolyl-imidazo[2,1-b]benzothiazole]
viability at 5 µM [3]: 24%

Compound: c1coc(-c2cn3c(n2)sc2ccccc23)c1 [Compound 3, 2-Furan-2-yl-imidazo[2,1-b]benzothiazole hydrobromide salt]
viability at 10 µM [3]: 16%

Compound: c1ccc2c(c1)sc1nc(-c3ccc(C4CCCC4)cc3)cn12 [Compound 8, 2-(4-Cyclopentyl-phenyl)-imidzxo[2,1-b]benzothiazoles hydrobromide salt]
viability at 10 µM [3]: 36%

Compound: Cc1ccc(C(=O)Cn2c3c(sc2=N)CCCC3)cc1 [PFT-α, 2-(2-imino-4,5,6,7-tetrahydro-benzothiazol-3-yl)-1-p-tolyl-ethanone hydrobromide, reference compound]
PUMA protein expression (western blot) [2]: partial inhibition
Stability under physiologic conditions [4]: not stable

Compound: Cc1ccc(-c2cn3c(n2)sc2cc(O)ccc23)cc1 [Compound 4, 2-p-Tolyl-benzo[d]imidazo[2,1-b]thiazol-7-ol]
viability at 5 µM [3]: 19%

Compound: Brc1ccc(-c2cn3c(n2)sc2ccccc23)cc1 [Compound 5]
viability at 10 µM [3]: 22%

Compound: Cc1ccc(-c2cn3c(n2)sc2cc(Br)ccc23)cc1 [Compound 9, 7-Bromo-2-p-tolylimidazo[2,1-b]benzothiazole hydrobromide salt]
viability at 10 µM [3]: 39%

EC50 [3, 8]: 10.2 µM
Compound: c1ccc(-c2cn3c(n2)sc2ccccc23)cc1 [Compound 12]
viability at 10 µM [3]: 73%

EC50 [3, 8]: 4.44 µM
Compound: COc1ccc2c(c1)sc1nc(-c3ccc(C)cc3)cn12 [Compound 11, 7-Methoxy-2-p-tolyl-imidazo[2,1-b]benzothiazole hydrobromide salt]
viability at 5 µM [3]: 68%

EC50 [3, 7]: 1.22 µM
Compound: Cc1ccc(-c2cn3c(n2)sc2ccccc23)cc1 [Compound 13]
viability at 5 µM [3]: 73%

EC50 [3, 7]: 8.12 µM
Compound: c1ccc(-c2ccc(-c3cn4c(n3)sc3ccccc34)cc2)cc1 [Compound 10]
viability at 10 µM [3]: 59%

Compound: Cc1ccc(-c2cn3c(n2)sc2cc(N)ccc23)cc1 [Compound 7, 2-p-Tolyl-imidazo[2,1-b]benzothiazol-7-ylamine]
viability at 10 µM [3]: 27%

Compound: Cc1ccc(-c2cn3c4c(sc3n2)CCCC4)cc1 [IBT]
Effect against fludarabine-induced apoptosis [5]: protective effect
Effect against spontaneous apoptosis [5]: protective effect
